Test results published in the NIST ThermoML archive (doi:10.1007/s10765-014-1759-1).
± gives the expanded uncertainty stated by the source.

Settings: 101.33 kPa, Liquid; for viscosity: Capillary tube (Ostwald / Ubbelohde) method; for mass density: Vibrating tube method

Row | viscosity (293.15 K) [mPa·s] | mass density (293.15 K) [kg/m3] | viscosity (298.15 K) [mPa·s] | mass density (298.15 K) [kg/m3] | SMILES
1 | 0.412 ± 0.0053 | 684 ± 0.6 | 0.3895 ± 0.0052 | 679.7 ± 0.6 | CCCCCCC [heptane]
2 | 0.5433 ± 0.0059 | 702.5 ± 0.6 | 0.5108 ± 0.0057 | 698.5 ± 0.6 | CCCCCCCC [octane]

Continued, compound first:

Row | SMILES | viscosity (293.15 K) [mPa·s] | mass density (293.15 K) [kg/m3] | viscosity (298.15 K) [mPa·s] | mass density (298.15 K) [kg/m3]
3 | C1CCCCC1 [cyclohexane] | 0.978 ± 0.0084 | 778.7 ± 0.3 | 0.8931 ± 0.0079 | 773.9 ± 0.3
4 | CCc1ccccc1 [ethylbenzene] | 0.6735 ± 0.0066 | 867.1 ± 0.6 | 0.6318 ± 0.0064 | 862.7 ± 0.6
5 | Cc1ccccc1 [toluene] | 0.5891 ± 0.0061 | 866.7 ± 0.6 | 0.5528 ± 0.006 | 862 ± 0.6
